From patent US10077237B2 (Sanofi, priority 2013, dated 2018)
Where “and” joins values, the source holds several entries; their conditions need not be identical. Identical values can stand only once. Counter-ions that a name gives are not always drawn.

Biological target: T1, recombinant human AMPK complex, containing α2β1γ2 (Homo sapiens, UniProt P54646+Q9Y478)
T1 construct: hsAMPKα2-552-His, hsAMPKβ1-2-270 and hsAMPKγ-2-569 respectively; hsAMPKβ1-2-270; hsAMPKγ-2-569; His (C); made in house; host or cells: Spodoptera frugiperda Sf21 (baculovirus)
Test: AMPK in vitro activation assay (HTRF)
Type: biochemical
Settings: for EC50: HTRF, recombinant human α2β1γ2 AMPK, 200 μM ATP, biotinylated ACC-CREBp peptide, repeat determinations on separate lines; for Emax: potentiation of AMPK activity as percent over the basal signal (without compound)
Method: The recombinant human AMPK complex, containing α2β1γ2 was obtained from baculovirus expression system and generated by cotransfection in Spodoptera frugiperda 21 (Sf21). […] were produced in serum free medium (SF900 II, Invitrogen) for 82 hours after a triple infection at a multiplicity of infection (M.O.I.) of 0.05, 0.06 and 0.045 for hsAMPKα2-552-His, hsAMPKβ1-2-270 and hsAMPKγ-2-569 respectively. Cells were harvested by centrifugation at 1,000×g for 10 minutes at 4° C. and stored at −80° C. The insect cell pellet from 8 liters of culture was resuspended and homogenized in 580 ml of lysis buffer (20 mM Hepes pH 7.5, 150 mM NaCl, 10 mM imidazole, 50 mM NaF, 10% Glycerol and supplemented with EDTA free proteases inhibitor cocktail Roche). The AMPK complex was partially purified using an affinity chromatography under a Ni-NTA Agarose column equilibrated in the lysis buffer and eluted with a gradient (0 to 400 mM) of Imidazol.
A homogeneous time-resolved fluorescence (HTRF) assay was used (Li et al, Anal. Biochem. (2003) 321, 151-156) to identify compounds with stimulating activity for the recombinant human AMPK. Enzyme reaction was performed into a 96-well microtiter plate. First, 20 μL of test compounds in 0.5% DMSO were dispensed followed by 10 μL of protein in 50 mM HEPES buffer at pH 7.0, 100 mM NaCl, 5 mM MgCl2, 0.01% BSA, 0.8 mM DTT. After, 30 min incubation at room temperature, the reaction was initiated by the addition of 10 μL of a solution containing 200 μM of ATP as donor substrate, 2 μM or 0.08 μM of biotinylated ACC-CREBp peptide (PolyPeptide) as acceptor. Plates were then incubated 45 min at 37° C. The reaction was terminated by the addition of 40 μl detection mixture containing Eu^3+ cryptate-conjugated anti-pS^133-CREB antibody and streptavidine-XL665 (CisBio). Plates were further incubated for 2 h30 at room temperature. The fluorescence signal was measured using an Envision multireader (Perkin Elmer). The non-specific signal was obtained without substrates. Potentiation of AMPK activity was expressed as a percent over the basal signal (without compound) from which an EC50 value was determined.
The EC50 of a graded dose response curve represents the concentration of a compound where 50% of its maximal effect is observed.

T1 sequence (P54646 2-552): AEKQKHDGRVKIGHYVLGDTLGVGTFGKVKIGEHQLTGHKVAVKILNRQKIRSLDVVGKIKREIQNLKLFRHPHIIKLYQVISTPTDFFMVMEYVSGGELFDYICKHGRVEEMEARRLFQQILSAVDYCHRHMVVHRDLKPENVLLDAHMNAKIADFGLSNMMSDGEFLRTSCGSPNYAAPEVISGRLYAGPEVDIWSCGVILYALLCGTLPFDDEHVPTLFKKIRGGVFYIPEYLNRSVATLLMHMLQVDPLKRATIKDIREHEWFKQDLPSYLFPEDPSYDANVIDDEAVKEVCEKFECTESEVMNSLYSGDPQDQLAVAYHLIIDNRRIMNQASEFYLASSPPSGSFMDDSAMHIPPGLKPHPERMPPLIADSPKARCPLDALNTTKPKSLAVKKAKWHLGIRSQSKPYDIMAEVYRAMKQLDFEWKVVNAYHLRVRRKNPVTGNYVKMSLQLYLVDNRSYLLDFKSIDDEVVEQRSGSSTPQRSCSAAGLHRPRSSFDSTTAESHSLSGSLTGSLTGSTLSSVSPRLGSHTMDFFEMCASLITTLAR
T1 sequence (Q9Y478 2-270): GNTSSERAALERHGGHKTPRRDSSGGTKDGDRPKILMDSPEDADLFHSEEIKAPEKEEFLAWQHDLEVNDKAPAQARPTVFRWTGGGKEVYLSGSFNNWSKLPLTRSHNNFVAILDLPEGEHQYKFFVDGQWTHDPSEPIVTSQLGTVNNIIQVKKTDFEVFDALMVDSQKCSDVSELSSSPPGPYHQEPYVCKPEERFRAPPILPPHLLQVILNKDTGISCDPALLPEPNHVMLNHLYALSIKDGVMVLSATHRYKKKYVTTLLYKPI
T1 sequence (Q9UGJ0 2-569 partner limits assumed): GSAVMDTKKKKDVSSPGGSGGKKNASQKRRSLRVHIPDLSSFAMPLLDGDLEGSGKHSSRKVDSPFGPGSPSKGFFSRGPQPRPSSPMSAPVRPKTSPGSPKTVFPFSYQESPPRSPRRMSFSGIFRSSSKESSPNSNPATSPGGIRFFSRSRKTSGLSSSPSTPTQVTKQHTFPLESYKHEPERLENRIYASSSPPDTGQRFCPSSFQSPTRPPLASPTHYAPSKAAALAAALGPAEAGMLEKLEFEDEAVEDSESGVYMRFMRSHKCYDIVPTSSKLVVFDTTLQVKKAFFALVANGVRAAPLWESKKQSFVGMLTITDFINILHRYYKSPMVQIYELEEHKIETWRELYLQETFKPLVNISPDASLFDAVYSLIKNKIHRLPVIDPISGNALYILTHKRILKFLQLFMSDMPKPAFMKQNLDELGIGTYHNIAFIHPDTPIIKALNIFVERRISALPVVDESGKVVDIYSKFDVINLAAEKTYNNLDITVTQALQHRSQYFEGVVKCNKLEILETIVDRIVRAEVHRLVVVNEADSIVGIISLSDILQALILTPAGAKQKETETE

| SMILES | EC50 | Emax [%] |
| --- | --- | --- |
| COc1cc(C(O)=C2C(=O)Nc3cc(F)c(-c4ccc(-c5cccc(OC)c5O)cc4)cc32)on1 [Compound 71, 6-Fluoro-5-(2′-hydroxy-3′-methoxy-biphenyl-4-yl)-3-[1-hydroxy-1-(3-methoxy-isoxazol-5-yl)methylidene]-1,3-dihydro-indol-2-one] | 2 nM | 158 |
| Cc1cc(C(O)=C2C(=O)Nc3cc(C)c(-c4ccc(N5CCOCC5)cc4)cc32)on1 [Compound 31, 3-[1-Hydroxy-1-(3-methyl-isoxazol-5-yl)-methylidene]-6-methyl-5-(4-morpholin-4-yl-phenyl)-1,3-dihydro-indol-2-one] | 540 nM | 147 |
| O=C1Nc2cc(Cl)c(-c3ccc(N4CCOCC4)cc3)cc2C1=C(O)c1ccccc1F [Compound 32, 6-Chloro-3-[1-(2-fluoro-phenyl)-1-hydroxy-methylidene]-5-(4-morpholin-4-yl-phenyl)-1,3-dihydro-indol-2-one] | 140 nM | 112 |
| CN(C)c1ccc(-c2cc3c(cc2Cl)NC(=O)C3=C(O)c2cccc(C(=O)O)c2)cc1 [Compound 8, 3-{[6-Chloro-5-(4-dimethylamino-phenyl)-2-oxo-1,2-dihydro-indolylidene]-hydroxy-methyl}-benzoic acid] | 33 nM | 124 |
| O=C1Nc2cc(Cl)c(-c3ccc4ccccc4c3)cc2C1=C(O)c1cccc(F)c1 [Compound 11, 6-Chloro-3-[1-(3-fluoro-phenyl)-1-hydroxy-methylidene]-5-naphthalen-2-yl-1,3-dihydro-indol-2-one] | 4000 nM | 95 |
| COc1cc(C(O)=C2C(=O)Nc3cc(Cl)c(-c4ccc(C5(OC)CCC5)cc4)cc32)on1 [Compound 110, 6-chloro-3-[hydroxy-(3-methoxyisoxazol-5-yl)methylene]-5-[4-(1-methoxycyclobutyl)phenyl]indolin-2-one] | 6 nM | 131 |
| COc1cc(C(O)=C2C(=O)Nc3cc(Cl)c(-c4ccc(N(C)C5CC5)cc4)cc32)on1 [Compound 153, 6-chloro-5-[4-[cyclopropyl(methyl)amino]phenyl]-3-[hydroxy-(3-methoxyisoxazol-5-yl)methylene]indolin-2-one] | 7 nM | 234 |
| COc1cc(C(O)=C2C(=O)Nc3cc(Cl)c(-c4ccc(N(C)C)nc4)cc32)on1 [Compound 146, 6-chloro-5-[6-(dimethylamino)-3-pyridyl]-3-[hydroxy-(3-methoxyisoxazol-5-yl)methylene]indolin-2-one] | 88 nM | 278 |
| COc1cnccc1C(O)=C1C(=O)Nc2cc(Cl)c(-c3ccc(C4(CO)CC4)cc3)cc21 [Compound 175, 6-chloro-3-[hydroxy-(3-methoxy-4-pyridyl)methylene]-5-[4-[1-(hydroxymethyl)cyclopropyl]phenyl]indolin-2-one] | 2 nM | 198 |
| COc1cc(C(O)=C2C(=O)Nc3cc(Cl)c(-c4ccc(OCc5cncs5)cc4)cc32)on1 [Compound 136, 6-chloro-3-[hydroxy-(3-methoxyisoxazol-5-yl)methylene]-5-[4-(thiazol-5-ylmethoxy)phenyl]indolin-2-one] | 26 nM | 309 |
| Cc1cc(C(O)=C2C(=O)Nc3cc(Cl)c(-c4ccc(N5CCCC5)cc4)cc32)on1 [Compound 24, 6-Chloro-3-[1-hydroxy-1-(3-methyl-isoxazol-5-yl)-methylidene]-5-(4-pyrrolidin-1-yl-phenyl)-1,3-dihydro-indol-2-one] | 110 nM | 143 |
| Cc1[nH]c(=O)sc1C(O)=C1C(=O)Nc2cc(Cl)c(-c3ccc(N4CCOCC4)cc3)cc21 [Compound 107, 5-[-[6-chloro-5-(4-morpholinophenyl)-2-oxo-indolin-3-ylidene]-hydroxy-methyl]-4-methyl-3H-thiazol-2-one] | 36 nM | 104 |
| Cc1cc(C(O)=C2C(=O)Nc3cc(Cl)c(-c4ccc(N5CCN(C)CC5)cc4)cc32)on1 [Compound 74, 6-Chloro-3-[1-hydroxy-1-(3-methyl-isoxazol-5-yl)methylidene]-5-[4-(4-methyl-piperazin-1-yl)-phenyl]-1,3-dihydro-indol-2-one, hydrochloride] | 112 nM | 213 |
| Cc1ccc(C(O)=C2C(=O)Nc3cc(Cl)c(-c4ccc(C5(CO)CC5)cc4)cc32)s1 [Compound 123, 6-chloro-5-[4-[1-(hydroxymethyl)cyclopropyl]phenyl]-3-[hydroxy-(5-methyl-2-thienyl)methylene]indolin-2-one] | 0.4 nM | 272 |

Further lines, results first:

| EC50 | Emax [%] | SMILES |
| --- | --- | --- |
| 6 nM | 95 | O=C1Nc2cc(Cl)c(-c3ccc(C4(CO)CC4)cc3)cc2C1=C(O)c1ccccc1F [Compound 46, 6-Chloro-3-[1-(2-fluoro-phenyl)-1-hydroxy-methylidene]-5-[4-(1-hydroxymethyl-cyclopropyl)-phenyl]-1,3-dihydro-indol-2-one] |
| 25 nM | 231 | COc1cc(C(O)=C2C(=O)Nc3cc(Cl)c(-c4ccc(OC5CCN(C)CC5)cc4)cc32)on1 [Compound 124, 6-chloro-3-[hydroxy-(3-methoxyisoxazol-5-yl)methylene]-5-[4-[(1-methyl-4-piperidyl)oxy]phenyl]indolin-2-one hydrochloride] |
| 98 nM | 254 | O=C1Nc2cc(Cl)c(-c3ccc(N4CCOCC4)cc3)cc2C1=C(O)c1cc(C2CC2)on1 [Compound 62, 6-Chloro-3-[1-(5-cyclopropyl-isoxazol-3-yl)-1-hydroxy-methylidene]-5-(4-morpholin-4-yl-phenyl)-1,3-dihydro-indol-2-one] |
| 0.1 nM | 129 | COc1cccc(-c2ccc(-c3cc4c(cc3Cl)NC(=O)C4=C(O)c3cc(C4CC4)no3)cc2)c1O [Compound 117, 6-chloro-3-[(3-cyclopropylisoxazol-5-yl)hydroxy-methylene]-5-[4-(2-hydroxy-3-methoxy-phenyl)phenyl]indolin-2-one] |
| 0.6 nM | 133 | O=C1Nc2cc(F)c(-c3ccc(C4(CO)CC4)cc3)cc2C1=C(O)c1cc(C2CC2)no1 [Compound 119, 3-[(3-cyclopropylisoxazol-5-yl)hydroxy-methylene]6-fluoro-5-[4-[1-(hydroxymethyl)cyclopropyl]phenyl]indolin-2-one] |
| 0.5 nM | 128 | COc1ccc(C(O)=C2C(=O)Nc3cc(Cl)c(-c4ccc(N5CCOCC5)cc4)cc32)cc1F [Compound 77, 6-Chloro-3-[1-(3-fluoro-4-methoxy-phenyl)-1-hydroxy-methylidene]-5-(4-morpholin-4-yl-phenyl)-1,3-dihydro-indol-2-one] |
| 250 nM | 147 | Cc1cc(C(O)=C2C(=O)Nc3cc(Cl)c(-c4ccc(C5CC5)cc4)cc32)on1 [Compound 22, 6-Chloro-5-(4-cyclopropyl-phenyl)-3-[1-hydroxy-1-(3-methyl-isoxazol-5-yl)-methylidene]-1,3-dihydro-indol-2-one] |
| 7 nM | 141 | Cc1cc(C(O)=C2C(=O)Nc3cc(Cl)c(-c4ccc(C5CCN(C)CC5)cc4)cc32)on1 [Compound 78, 6-Chloro-3-[1-hydroxy-1-(3-methyl-isoxazol-5-yl)methylidene]-5-[4-(1-methyl-piperidin-4-yl)phenyl]-1,3-dihydro-indol-2-one, hydrochloride] |
| 190 nM | 138 | O=C1Nc2cc(Cl)c(-c3ccc(N4CCOCC4)cc3)cc2C1=C(O)c1cccc(O)c1 [Compound 3, 6-Chloro-3-[1-hydroxy-1-(3-hydroxy-phenyl)-methylidene]-5-(4-morpholin-4-yl-phenyl)-1,3-dihydro-indol-2-one] |
| 190 nM | 135 | N#Cc1cccc(C(O)=C2C(=O)Nc3cc(Cl)c(-c4ccc(N5CCOCC5)cc4)cc32)c1 [Compound 18, 3-{[6-Chloro-5-(4-morpholin-4-yl-phenyl)-2-oxo-1,2-dihydro-indolylidene]-hydroxy-methyl}-benzonitrile] |
| 33 nM and 86 nM | – | COCCCOc1ccc(-c2cc3c(cc2Cl)NC(=O)C3=C(O)c2cc(OC)no2)cc1 [Compound 131, 6-chloro-3-[hydroxy-(3-methoxyisoxazol-5-yl)methylene]-5-[4-(3-methoxypropoxy)phenyl]indolin-2-one] |
